Experiments:
[1] = biological target: T1, Endothelin receptor type B (Rattus norvegicus, UniProt P21451); experiment: Concentration required to produce 50% inhibition of binding against ET B receptor obtained from rat brain membrane
T1 sequence (P21451 whole entry): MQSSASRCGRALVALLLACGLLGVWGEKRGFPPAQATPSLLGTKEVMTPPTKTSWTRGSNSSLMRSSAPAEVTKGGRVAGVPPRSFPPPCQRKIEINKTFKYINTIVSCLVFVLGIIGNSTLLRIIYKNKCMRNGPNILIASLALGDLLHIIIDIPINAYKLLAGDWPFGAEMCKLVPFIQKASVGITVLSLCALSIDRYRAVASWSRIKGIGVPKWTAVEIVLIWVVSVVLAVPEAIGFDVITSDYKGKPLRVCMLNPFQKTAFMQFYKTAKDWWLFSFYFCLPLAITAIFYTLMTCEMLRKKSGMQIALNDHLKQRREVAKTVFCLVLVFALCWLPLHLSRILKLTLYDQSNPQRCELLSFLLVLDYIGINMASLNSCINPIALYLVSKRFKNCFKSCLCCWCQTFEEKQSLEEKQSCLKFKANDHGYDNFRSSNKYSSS

Endothelin-1 receptor = biological target: T2, Endothelin-1 receptor (Rattus norvegicus, UniProt P26684); experiment: Concentration required to produce 50% inhibition of binding against ET A receptor obtained from rat thoracic aortic membrane
T2 sequence (P26684 whole entry): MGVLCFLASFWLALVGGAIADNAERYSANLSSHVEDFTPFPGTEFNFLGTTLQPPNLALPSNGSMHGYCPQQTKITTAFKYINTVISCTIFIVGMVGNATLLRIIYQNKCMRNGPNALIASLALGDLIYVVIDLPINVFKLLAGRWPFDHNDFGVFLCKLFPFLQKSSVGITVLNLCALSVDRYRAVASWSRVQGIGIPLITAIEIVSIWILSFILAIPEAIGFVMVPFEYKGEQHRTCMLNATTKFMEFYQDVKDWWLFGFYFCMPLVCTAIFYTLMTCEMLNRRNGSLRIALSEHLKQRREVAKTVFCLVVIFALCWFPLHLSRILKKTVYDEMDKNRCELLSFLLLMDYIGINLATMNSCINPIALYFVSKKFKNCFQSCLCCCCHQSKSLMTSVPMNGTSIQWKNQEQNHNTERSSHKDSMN

SMILES | pIC50 [1] | pIC50 (Endothelin-1 receptor)
CCC(CC)C[C@@H](NC(=O)[C@@H](NC(=O)[C@H](CC(=O)O)NC(=O)[C@H](CC(C)C)NC(=O)[C@H](Cc1cnc[nH]1)NC(=O)[C@H](CS)NC(=O)[C@H](Cc1ccccc1)NC(=O)[C@H](Cc1ccc(O)cc1)NC(=O)[C@@H](NC(=O)[C@H](CS)NC(=O)[C@H](CCC(=O)O)NC(=O)[C@H](CCCCN)NC(=O)[C@H](CC(=O)O)NC(=O)[C@H](CCSC)NC(=O)[C@H](CC(C)C)NC(=O)[C@H](CO)NC(=O)[C@H](CO)NC(=O)[C@H](CS)NC(=O)[C@H](CO)NC(=O)[C@@H](N)CS)C(C)C)[C@H](C)CC)C(=O)N[C@@H](Cc1c[nH]c2ccccc12)C(=O)O [Endothelin-1 analogue] | 9.78 | 8.06
CC[C@@H](C)[C@H](NC(=O)[C@H](CC(=O)O)NC(=O)[C@H](CC(C)C)NC(=O)[C@H](Cc1cnc[nH]1)NC(=O)[C@H](CS)NC(=O)[C@H](Cc1ccccc1)NC(=O)[C@H](Cc1ccc(O)cc1)NC(=O)[C@@H](NC(=O)[C@H](CS)NC(=O)[C@H](CCC(=O)O)NC(=O)[C@H](CCCCN)NC(=O)[C@H](CC(=O)O)NC(=O)[C@H](CCSC)NC(=O)[C@H](CC(C)C)NC(=O)[C@H](CO)NC(=O)[C@H](CO)NC(=O)[C@H](CS)NC(=O)[C@H](CO)NC(=O)[C@@H](N)CS)C(C)C)C(=O)N[C@H](CC(C)C)C(=O)N[C@@H](Cc1c[nH]c2ccccc12)C(=O)O [Endothelin-1 analogue] | 9.94 | 7.97
CC[C@H](C)[C@H](NC(=O)[C@H](CC(=O)O)NC(=O)[C@H](CC(C)C)NC(=O)[C@H](Cc1cnc[nH]1)NC(=O)[C@H](CS)NC(=O)[C@H](Cc1ccccc1)NC(=O)[C@H](Cc1ccc(O)cc1)NC(=O)[C@@H](NC(=O)[C@H](CS)NC(=O)[C@H](CCC(=O)O)NC(=O)[C@H](CCCCN)NC(=O)[C@H](CC(=O)O)NC(=O)[C@H](CCSC)NC(=O)[C@H](CC(C)C)NC(=O)[C@H](CO)NC(=O)[C@H](CO)NC(=O)[C@H](CS)NC(=O)[C@H](CO)NC(=O)[C@@H](N)CS)C(C)C)C(=O)N[C@@H](Cc1c[nH]c2ccccc12)C(=O)N[C@@H](Cc1c[nH]c2ccccc12)C(=O)O [Endothelin-1 analogue] | 9.77 | 6.71
CC[C@@H](C)[C@H](NC(=O)[C@H](CC(=O)O)NC(=O)[C@H](CC(C)C)NC(=O)[C@H](Cc1cnc[nH]1)NC(=O)[C@H](CS)NC(=O)[C@H](Cc1ccccc1)NC(=O)[C@H](Cc1ccc(O)cc1)NC(=O)[C@@H](NC(=O)[C@H](CS)NC(=O)[C@H](CCC(=O)O)NC(=O)[C@H](CCCCN)NC(=O)[C@H](CC(=O)O)NC(=O)[C@H](CCSC)NC(=O)[C@H](CC(C)C)NC(=O)[C@H](CO)NC(=O)[C@H](CO)NC(=O)[C@H](CS)NC(=O)[C@H](CO)NC(=O)[C@@H](N)CS)C(C)C)C(=O)N[C@H](CCC(N)=O)C(=O)N[C@@H](Cc1c[nH]c2ccccc12)C(=O)O [Endothelin-1 analogue] | 5.59 | 5.27
CC[C@H](C)[C@H](NC(=O)[C@H](CC(=O)O)NC(=O)[C@H](CC(C)C)NC(=O)[C@H](Cc1cnc[nH]1)NC(=O)[C@H](CS)NC(=O)[C@H](Cc1ccccc1)NC(=O)[C@H](Cc1ccc(O)cc1)NC(=O)[C@@H](NC(=O)[C@H](CS)NC(=O)[C@H](CCC(=O)O)NC(=O)[C@H](CCCCN)NC(=O)[C@H](CC(=O)O)NC(=O)[C@H](CCSC)NC(=O)[C@H](CC(C)C)NC(=O)[C@H](CO)NC(=O)[C@H](CO)NC(=O)[C@H](CS)NC(=O)[C@H](CO)NC(=O)[C@@H](N)CS)C(C)C)C(=O)N[C@@H](C)C(=O)N[C@@H](Cc1c[nH]c2ccccc12)C(=O)O [Endothelin-1 analogue] | 9.4 | 7.53
CCC[C@@H](NC(=O)[C@@H](NC(=O)[C@H](CC(=O)O)NC(=O)[C@H](CC(C)C)NC(=O)[C@H](Cc1cnc[nH]1)NC(=O)[C@H](CS)NC(=O)[C@H](Cc1ccccc1)NC(=O)[C@H](Cc1ccc(O)cc1)NC(=O)[C@@H](NC(=O)[C@H](CS)NC(=O)[C@H](CCC(=O)O)NC(=O)[C@H](CCCCN)NC(=O)[C@H](CC(=O)O)NC(=O)[C@H](CCSC)NC(=O)[C@H](CC(C)C)NC(=O)[C@H](CO)NC(=O)[C@H](CO)NC(=O)[C@H](CS)NC(=O)[C@H](CO)NC(=O)[C@@H](N)CS)C(C)C)[C@H](C)CC)C(=O)N[C@@H](Cc1c[nH]c2ccccc12)C(=O)O [Endothelin-1 analogue] | 10 | 7.6

Second part, the molecule after the results:

pIC50 [1] | pIC50 (Endothelin-1 receptor) | SMILES
7.55 | 6.13 | CC[C@@H](C)[C@H](NC(=O)[C@H](CC(=O)O)NC(=O)[C@H](CC(C)C)NC(=O)[C@H](Cc1cnc[nH]1)NC(=O)[C@H](CS)NC(=O)[C@H](Cc1ccccc1)NC(=O)[C@H](Cc1ccc(O)cc1)NC(=O)[C@@H](NC(=O)[C@H](CS)NC(=O)[C@H](CCC(=O)O)NC(=O)[C@H](CCCCN)NC(=O)[C@H](CC(=O)O)NC(=O)[C@H](CCSC)NC(=O)[C@H](CC(C)C)NC(=O)[C@H](CO)NC(=O)[C@H](CO)NC(=O)[C@H](CS)NC(=O)[C@H](CO)NC(=O)[C@@H](N)CS)C(C)C)C(=O)N[C@H](Cc1cnc[nH]1)C(=O)N[C@@H](Cc1c[nH]c2ccccc12)C(=O)O [Endothelin-1 analogue]
– | 9.93 | CC[C@H](C)[C@H](NC(=O)[C@H](CC(=O)O)NC(=O)[C@H](CC(C)C)NC(=O)[C@H](Cc1cnc[nH]1)NC(=O)[C@H](CS)NC(=O)[C@H](Cc1ccccc1)NC(=O)[C@H](Cc1ccc(O)cc1)NC(=O)[C@@H](NC(=O)[C@H](CS)NC(=O)[C@H](CCC(=O)O)NC(=O)[C@H](CCCCN)NC(=O)[C@H](CC(=O)O)NC(=O)[C@H](CCSC)NC(=O)[C@H](CC(C)C)NC(=O)[C@H](CO)NC(=O)[C@H](CO)NC(=O)[C@H](CS)NC(=O)[C@H](CO)NC(=O)[C@@H](N)CS)C(C)C)C(=O)N[C@H](C(=O)N[C@@H](Cc1c[nH]c2ccccc12)C(=O)O)[C@@H](C)CC [Endothelin-1 analogue]
7.96 | 5.77 | CC[C@H](C)[C@H](NC(=O)[C@H](CC(=O)O)NC(=O)[C@H](CC(C)C)NC(=O)[C@H](Cc1cnc[nH]1)NC(=O)[C@H](CS)NC(=O)[C@H](Cc1ccccc1)NC(=O)[C@H](Cc1ccc(O)cc1)NC(=O)[C@@H](NC(=O)[C@H](CS)NC(=O)[C@H](CCC(=O)O)NC(=O)[C@H](CCCCN)NC(=O)[C@H](CC(=O)O)NC(=O)[C@H](CCSC)NC(=O)[C@H](CC(C)C)NC(=O)[C@H](CO)NC(=O)[C@H](CO)NC(=O)[C@H](CS)NC(=O)[C@H](CO)NC(=O)[C@@H](N)CS)C(C)C)C(=O)N[C@H](C)C(=O)N[C@@H](Cc1c[nH]c2ccccc12)C(=O)O [Endothelin-1 analogue]
– | 7.59 | CC[C@@H](C)[C@@H](NC(=O)[C@@H](NC(=O)[C@H](CC(=O)O)NC(=O)[C@H](CC(C)C)NC(=O)[C@H](Cc1cnc[nH]1)NC(=O)[C@H](CS)NC(=O)[C@H](Cc1ccccc1)NC(=O)[C@H](Cc1ccc(O)cc1)NC(=O)[C@@H](NC(=O)[C@H](CS)NC(=O)[C@H](CCC(=O)O)NC(=O)[C@H](CCCCN)NC(=O)[C@H](CC(=O)O)NC(=O)[C@H](CCSC)NC(=O)[C@H](CC(C)C)NC(=O)[C@H](CO)NC(=O)[C@H](CO)NC(=O)[C@H](CS)NC(=O)[C@H](CO)NC(=O)[C@@H](N)CS)C(C)C)[C@@H](C)CC)C(=O)N[C@@H](Cc1c[nH]c2ccccc12)C(=O)O [Endothelin-1 analogue]
9.76 | 8.89 | CC[C@H](C)[C@H](NC(=O)[C@H](CC(=O)O)NC(=O)[C@H](CC(C)C)NC(=O)[C@H](Cc1cnc[nH]1)NC(=O)[C@H](CS)NC(=O)[C@H](Cc1ccccc1)NC(=O)[C@H](Cc1ccc(O)cc1)NC(=O)[C@@H](NC(=O)[C@H](CS)NC(=O)[C@H](CCC(=O)O)NC(=O)[C@H](CCCCN)NC(=O)[C@H](CC(=O)O)NC(=O)[C@H](CCSC)NC(=O)[C@H](CC(C)C)NC(=O)[C@H](CO)NC(=O)[C@H](CO)NC(=O)[C@H](CS)NC(=O)[C@H](CO)NC(=O)[C@@H](N)CS)C(C)C)C(=O)N[C@H](C(=O)N[C@@H](Cc1c[nH]c2ccccc12)C(=O)O)c1ccccc1 [Endothelin-1 analogue]
8.6 | 6.85 | CC[C@H](C)[C@H](NC(=O)[C@H](CC(=O)O)NC(=O)[C@H](CC(C)C)NC(=O)[C@H](Cc1cnc[nH]1)NC(=O)[C@H](CS)NC(=O)[C@H](Cc1ccccc1)NC(=O)[C@H](Cc1ccc(O)cc1)NC(=O)[C@@H](NC(=O)[C@H](CS)NC(=O)[C@H](CCC(=O)O)NC(=O)[C@H](CCCCN)NC(=O)[C@H](CC(=O)O)NC(=O)[C@H](CCSC)NC(=O)[C@H](CC(C)C)NC(=O)[C@H](CO)NC(=O)[C@H](CO)NC(=O)[C@H](CS)NC(=O)[C@H](CO)NC(=O)[C@@H](N)CS)C(C)C)C(=O)N[C@@H](C(=O)N[C@@H](Cc1c[nH]c2ccccc12)C(=O)O)c1ccccc1 [Endothelin-1 analogue]

Source: BindingDB's records for doi:10.1016/S0960-894X(01)80247-X (1994)
